Laboratory results taken from US4959368A, “Therapeutic agent for neurological diseases” (Mitsui Petrochemical Industries Ltd., priority 1986, dated 1990).

System: rats with crushed sciatic nerves
Experiment: Curative effect on rats with crushed sciatic nerves
Assay type: in vivo, rat (male Wistar)
Settings: for Rate of recovery in muscle weight: soleus muscle, saline 51.8 ± 1.2
Description: Curative effect on rats with crushed sciatic nerves:
The curing effect of the compound (I) of the invention was tested on rats having crushed scietic nerves as a model of peripheral nervous disorder using (1) a change in the action of the hind paw with the crushed sciatic nerves and (2) a change in the weight of the muscle as an index of the course of degeneration and regeneartion of peripheral nerves.
In the experiment, male Wistar rats (6 weeks old), seven per group, were used. The sciatic nerves were crushed by a method similar to the method of Yamatsu et al. (see Kiyomi Yamatsu, Takenori Kaneko, Akifumi Kitahara and Isao Ohkawa, Journal of Japanese Pharmacological Society, 72, 259-268 (1976) and the method of Hasegawa et al. (see Kazuo Hasegawa, Naoji Mikuni and Yutaka Sakai, Journal of Japanese Pharmacological Society, 74, 721-734 (1978). Specifically, under anesthesia with pentobarbital (40 mg/kg, i.p.), the left side sciatic nerve was exposed at the femur and that site of the exposed scietic nerve which was 5 mm to the center from the branched part between the N. tibialis and the N. suralis was crushed using a modified artery, klomme, having a width of 2 mm and a gap of 0.1 mm. After the operation, the rats were assigned to the test groups at random.
Compound No. 408 was selected as the compound (I) of the invention and intraperitoneally administered to the rats once a day from the day of operation to the 22nd day. A group to which mecobalamin (made by Gedeon Richter Ltd.) was administered and a group to which 0.9% saline was administered were used as controls. The following items were measured with the lapse of time (on the 1st, 4th, 7th, 10th, 14th, 17th, 21st, and 23rd days after the crushing of the scietic nerves).
(1) Change in the action of the side of the hind paw with the crushed scietic nerve:
By a method similar to the method of Hasegawa [Hasegawa, K., Experientia, 34, 750-751 (1978)], the distance between the first and fifth digits of the hind paw was measured.
The ratio of the measured distance to the normal distance was calculated and expressed in percentage (%).
(2) Change in the weight of muscle
It is known that removal of a nerve or its disorder causes atrophy of the muscle which is under its control, and the atrophy is gradually cured by re-control by the nerve. For this reason, a change in the weight of the muscle, which is quantitative, was selected as an index. Twenty-three days after the operation, the soleus muscles of both sides of paws were extracted under anesthesia with pentobarbital, and their weights were measured. The ratio of the weight of the soleus muscle on the crushed side to that of normal side was calculated and expressed in percentage (%).

CN1C(=O)Cc2cnc(N3CCNCC3)nc21 [Compound 408]
Rate of recovery of the interdigit distance (21st day, 3 mg/kg ip once a day, saline 62.0 ± 2.4): 70.9 ± 3.5%
Rate of recovery of the interdigit distance (21st day, 10 mg/kg ip once a day, saline 62.0 ± 2.4, *P < 0.05): 74.9 ± 3.1%
Rate of recovery of the interdigit distance (21st day, 30 mg/kg ip once a day, saline 62.0 ± 2.4, ***P < 0.001): 79.6 ± 2.9%
Rate of recovery of the interdigit distance (21st day, 100 mg/kg ip once a day, saline 62.0 ± 2.4): 68.9 ± 4.3%
Rate of recovery of the interdigit distance (23rd day, 3 mg/kg ip once a day, saline 71.1 ± 3.4): 80.1 ± 3.6%
Rate of recovery of the interdigit distance (23rd day, 10 mg/kg ip once a day, saline 71.1 ± 3.4, *P < 0.05): 82.3 ± 2.7%
Rate of recovery of the interdigit distance (23rd day, 30 mg/kg ip once a day, saline 71.1 ± 3.4, *P < 0.05): 85.4 ± 4.1%
Rate of recovery of the interdigit distance (23rd day, 100 mg/kg ip once a day, saline 71.1 ± 3.4): 77.3 ± 6.0%
Rate of recovery in muscle weight (23rd day, 3 mg/kg ip, *P < 0.05): 58.0 ± 2.0%
Rate of recovery in muscle weight (23rd day, 10 mg/kg ip, *P < 0.05): 59.4 ± 2.2%
Rate of recovery in muscle weight (23rd day, 30 mg/kg ip, *P < 0.05): 59.3 ± 2.7%
Rate of recovery in muscle weight (23rd day, 100 mg/kg ip, *P < 0.05): 63.9 ± 3.5%
